From article PMC9964319, “Half-Sandwich Rhodium Complexes with Releasable N-Donor Monodentate Ligands: Solution Chemical Properties and the Possibility for Acidosis Activation” (Pharmaceutics, 2023)
Values after ≈ are worked out from the molar mass of the structure shown. Read-outs that look alike come from different tables or passages of the source.

How the values were obtained:
Type in all cases: cell-based
[1] = test system: Colo320 human colon adenocarcinoma cell line (doxorubicin-resistant); assay: MTT assay, cytotoxicity at pH 6 and 7; details: Colo320, 72 h incubation, read-out: IC50
Description: (§1) All cell culture reagents were obtained from Sigma-Aldrich (Merck KGaA, Darmstadt, Germany) and plasticware from Sarstedt (Nümbrecht, Germany). Human colonic adenocarcinoma cell lines Colo205 (catalog number: ATCC-CCL-222) and its doxorubicin-resistant counterpart Colo320 (catalog number: ATCC-CCL-220.1) were purchased from LGC Promochem (Teddington, UK). The cells were cultured in RPMI 1640 medium supplemented with 10% heat-inactivated fetal bovine serum, 2 mM L-glutamine, 1 mM sodium pyruvate, and 100 mM HEPES buffer, adjusting the pH to 6.0 or 7.0. The cells were incubated at 37 °C in a 5% CO2–95% air atmosphere. The semiadherent human colon cancer cells were detached with Trypsin-Versene solution for 5 min at 37 °C.
(§2) The solutions were freshly prepared prior to measurements (see Section 2.1). […] Firstly, these samples were diluted in complete culture medium; then, two-fold serial dilutions of the compounds were prepared in 100 μL of RPMI 1640, horizontally. The semiadherent colonic adenocarcinoma cells were treated with Trypsin-Versene solution. They were adjusted to a density of 1 × 10^4 cells in 100 μL of RPMI 1640 medium and were added to each well, with the exception of the medium control wells. The final volume of the wells containing compounds and cells was 200 μL. Samples were triplicated. The pH of the medium was adjusted to 6.0 or 7.0.
(§3) The culture plates were incubated at 37 °C for 72 h; at the end of the incubation period, 20 μL of MTT solution (from a stock solution of 5 mg/mL) was added to each well. After incubation at 37 °C for 4 h, 100 μL of SDS solution (10% in 0.01 M HCI) was added to each well, and the plates were further incubated at 37 °C overnight. Cell growth was determined by measuring the optical density (OD) at 540/630 nm with a Multiscan EX ELISA reader (Thermo Labsystems, Cheshire, WA, USA). […] Curves were fitted using GraphPad Prism software (2022, version 9.4.1, Graphpad Software (LLC) d.b.a Dotmatics, San Diego, CA, USA) using the sigmoidal dose–response model (comparing variable and fixed slopes).
(§4) The pH-dependent solution speciation of the selected mixed-ligand complexes is an important feature in the hypothesized mechanism of action, and the modeling of acidosis is necessary for the in vitro anticancer assays. In order to find out the cytotoxicity difference based on the pH of the medium, cytotoxic activity was determined at pH 6 and 7 by MTT assay in two human colon adenocarcinoma cell lines (doxorubicin-sensitive Colo205 and doxorubicin-resistant Colo320). […] The mixed-ligand complexes were prepared prior to the measurements, as was already described in Section 2.1. With this method, the effect of the different counter ions could be avoided, and a more adequate comparison of the mixed-ligand complexes could be conducted.

[2] = test system: Colo205 human colon adenocarcinoma cell line (doxorubicin-sensitive); assay: MTT assay, cytotoxicity at pH 6 and 7; details: Colo205, 72 h incubation, read-out: IC50
Description: as §1, §2, §3, §4

S. aureus 272123 (MRSA) = assay: Antibacterial assay, MIC in 96-well plates at different pH; details: Staphylococcus aureus, 24 h, read-out: MIC
Source text: (§5) The antibacterial effect was studied in two Gram-positive and in two Gram-negative strains. The Gram-positive S. aureus ATCC 25923 (ATCC, Manassas, VA, USA) is a methicillin-susceptible reference bacterial strain, while S. aureus 272123 is a clinical isolate and resistant to methicillin and ofloxacin (MRSA), which was given by Prof. Dr. Leonard Amaral (Institute of Hygiene and Tropical Medicine, Lisbon, Portugal). The Gram-negative strains were E. coli ATCC 25922 (ATCC, Manassas, VA, USA), which is sensitive to antibiotics, and E. coli 32313 (provided by the Institute of Clinical Microbiology, University of Szeged, Hungary), which is resistant to different antibiotics (trimethoprim/sulfamethoxazole, gentamicin, ciprofloxacin, and norfloxacin).
(§6) The minimum inhibitory concentrations (MICs) of the compounds were determined in 96-well plates based on the Clinical and Laboratory Standard Institute guidelines. The compounds were diluted in 100 μL of Mueller Hinton broth. Then, an overnight bacterial culture diluted 10,000 times in 100 μL of medium was added to each well, with the exception of the medium control wells. For each strain and each tested compound, four pH values were set (5, 6, 7, and 8). Each sample was triplicated.

[3] = test system: E. coli ATCC 25922 (sensitive); assay: as above; details: E. coli sensitive, after one day, read-out: MIC
Source text: as §5, §6

[4] = test system: S. aureus ATCC 25923 (methicillin-susceptible); assay: as above; details: Staphylococcus aureus, ATCC25923, 24 h, S. aureus sensitive, after one day, read-out: MIC
Source text: as §5, §6

[5] = test system: E. coli 32313 (resistant); assay: as above; details: E. coli resistant, after one day, read-out: MIC
Source text: as §5, §6

[6] = Escherichia coli, ATCC25922, 24 h, pH 5
[7] = Escherichia coli, ATCC25922, 24 h, pH 6
[8] = Escherichia coli, ATCC25922, 24 h, pH 7
[9] = Escherichia coli, ATCC25922, 24 h, pH 8

Row | Structure (SMILES) | MIC (S. aureus 272123 (MRSA); pH 5, after one day) [µM] | MIC (S. aureus 272123 (MRSA); pH 6, after one day) [µM] | MIC (S. aureus 272123 (MRSA); pH 7, after one day) [µM] | MIC (S. aureus 272123 (MRSA); pH 8, after one day) [µM] | MIC [3, 6] [µM] | MIC [3, 7] [µM] | MIC [3, 8] [µM] | MIC [3, 9] [µM] | MIC ([4]; pH 7) [µM] | MIC ([4]; pH 8) [µM] | MIC ([5]; Escherichia coli, 24 h, pH 5) [µM] | MIC ([5]; Escherichia coli, 24 h, pH 6) [µM] | MIC ([5]; Escherichia coli, 24 h, pH 7) [µM] | MIC ([5]; Escherichia coli, 24 h, pH 8) [µM] | other results
1 | CC1=C(C)C(C)C(C)=C1C.Cn1ccnc1.[Rh+3].c1cnc2c(c1)ccc1cccnc12 [[RhCp*(phen)(mim)]^2+] |  |  |  |  |  |  |  |  |  |  |  |  |  |  | IC50 ([1]; pH 6): 71.7 ± 3.3 µM; IC50 ([1]; pH 7): > 100 µM; IC50 ([2]; pH 6): > 100 µM; IC50 ([2]; pH 7): > 100 µM
2 | COc1cccc2c1C(=O)c1c(O)c3c(c(O)c1C2=O)C[C@@](O)(C(=O)CO)C[C@@H]3O[C@H]1C[C@H](N)[C@H](O)[C@H](C)O1 [doxorubicin, reference compound] |  |  |  |  |  |  |  |  |  |  |  |  |  |  | IC50 ([1]; Homo sapiens, COLO 320, pH 6): 0.46 ± 0.02 µM; IC50 ([2]; Homo sapiens, COLO 205, pH 6): 7.6 ± 0.3 µM; IC50 ([2]; Homo sapiens, COLO 205, pH 7): 0.71 ± 0.02 µM
3 | Clc1ccc(COC(Cn2ccnc2)c2ccc(Cl)cc2Cl)cc1 (centres unmarked) [econ, econazole, reference compound] | 25 (≈ 9.54 µg/mL) | 12.5 (≈ 4.77 µg/mL) | 6.25 (≈ 2.39 µg/mL) | 3.12 (≈ 1.19 µg/mL) | > 100 | > 100 | > 100 | > 100 | 0.78 (≈ 0.298 µg/mL) | 0.19 (≈ 0.0725 µg/mL) | > 100 | > 100 | > 100 | > 100 | MIC ([3]; pH 6): >100 µM; MIC ([3]; pH 7): >100 µM; MIC ([5]; pH 6): >100 µM; MIC ([5]; pH 7): >100 µM
4 | c1cnc2c(c1)ccc1cccnc12 [phen, 1,10-phenanthroline, reference compound] | 50 (≈ 9.01 µg/mL) | > 100 | > 100 | > 100 | 50 (≈ 9.01 µg/mL) | 50 (≈ 9.01 µg/mL) | 50 (≈ 9.01 µg/mL) | 25 (≈ 4.51 µg/mL) | > 100 | > 100 | 50 (≈ 9.01 µg/mL) | 50 (≈ 9.01 µg/mL) | 50 (≈ 9.01 µg/mL) | 50 (≈ 9.01 µg/mL) | 
5 | O=P(O)(O)C(O)(Cn1ccnc1)P(=O)(O)O [zol, zoledronic acid, reference compound] | > 100 | > 100 | > 100 | > 100 | > 100 | > 100 | > 100 | > 100 | > 100 | > 100 | > 100 | > 100 | > 100 | > 100 | 
